Experiment: Napkin sprayed with pentane-1,5-diol solution, dried, used to remove urine; smell assessed
Parameters: species or system human being
Settings: active solutions containing 10% (v/v) and 30% (v/v) sprayed onto disposable napkin, dried at room temperature; control water alone
Description: Active solutions containing 10% (v/v) and 30% (v/v) pentane-1,5-diol were sprayed onto a disposable napkin until the complete area of the napkin was moistened. The napkin was left at room temperature until the napkin was dry. The napkin was then used to remove urine from a human being. […] As a control was water used alone. The same amount of water and the active solution were used.

SMILES: OCCCCCO [pentane-1,5-diol]
- smell of urine from the napkin: no smell of urine
